This test deals with E. coli ATCC 43890. Description: Survivability of E. coli ATCC 43890 in presence of gadobutrol (cfu count by plating decimal dilutions). The format is cell-based, Escherichia coli. The protocol:
A. (1) E. coli culture ATCC 43890 grown on LB broth during the night, (2) bacteria culture grown on LB broth and incubated with 0,2 M of gadobutrol in magnetic bioprinter for 24 hours, and (3) bacteria culture cultivated in paramagnetic substrate containing 0,2 M of gadobutrol in magnetic bioprinter for 24 hours; bacteria were sown in decimal dilution; diagram is showing concentrations calculated in three independent experiments.
The E. coli ATCC 43890 (cultured in different conditions) concentrations were estimated for analysis of survivability of bacteria in presence of gadobutrol. Primary culture has shown concentrations of 2.3×10^9, 2.1×10^9 and 1.9×10^8 cfu/ml for fresh night culture grown in LB broth during the night (1), for culture grown in LB broth during the night and then incubated with 0.2M gadobutrol in the bioprinter for next 24 hours (2), and culture grown under magnetic levitation in the paramagnetic nutrient medium (3) respectively (FIG. 4A). […] Moreover, the results have shown that the bacteria proliferated in the paramagnetic culture medium, that was observed due to the increase in concentration during cultivation: the initial bacteria (diluted in fresh paramagnetic medium) concentration was 2.3×10^7 cfu/ml ( 1/100 from the fresh night culture) and final concentration was 1.9×10^8 cfu/ml.

Molecules are shown by their SMILES.

Consider `O=C([O-])CN1CCN(CC(=O)[O-])CCN(C(CO)C(O)CO)CCN(CC(=O)[O-])CC1.[Gd+3]` (stereo not drawn) [gadobutrol, [10-[2,3-dihydroxy-1-(hydroxymethyl)propyl]-1,4,7,10-tetraazacyclododecane-1,4,7-triaceto(3-)-N^1,N^4,N^7,N^10,O^1,O^4,O^7]gadolinium], for which the “survivability of bacteria after incubation” value (0.2M gadobutrol) was “bacteria saved their survivability”. For the same compound, the bacteria concentration (culture grown in LB broth during the night, then incubated with 0.2M gadobutrol in the bioprinter for next 24 hours) is 2.1×10^9 cfu/ml and the bacteria concentration (culture grown under magnetic levitation in paramagnetic nutrient medium (0.2 M gadobutrol) for 24 hours, initial concentration 2.3×10^7 cfu/ml) was 1.9×10^8 cfu/ml.

For the origin of these results see patent US20210309961A1, “METHOD OF THREE-DIMENSIONAL MICROORGANISMS BIOFILMS FABRICATION” (VIVAX BIO, LLC, priority 2020, published 2021).
